ChEMBL document CHEMBL1127937, “Dual metalloprotease inhibitors. I. constrained peptidomimetics of mercaptoacyl dipeptides” (Bioorg Med Chem Lett, 1994)
pIC50: −log10 of the molar value.

Assays:
[1] = tested on: Rattus norvegicus; assay: Tested in vivo for inhibition of angiotensin I -induced pressor response in normotensive rats after iv administration; assay type: functional
[2] = target: Neprilysin (Homo sapiens, UniProt P08473); assay: Tested in vitro for inhibition of neutral endopeptidase (NEP); details: read-out: I50
Chain of Neprilysin (P08473 whole entry): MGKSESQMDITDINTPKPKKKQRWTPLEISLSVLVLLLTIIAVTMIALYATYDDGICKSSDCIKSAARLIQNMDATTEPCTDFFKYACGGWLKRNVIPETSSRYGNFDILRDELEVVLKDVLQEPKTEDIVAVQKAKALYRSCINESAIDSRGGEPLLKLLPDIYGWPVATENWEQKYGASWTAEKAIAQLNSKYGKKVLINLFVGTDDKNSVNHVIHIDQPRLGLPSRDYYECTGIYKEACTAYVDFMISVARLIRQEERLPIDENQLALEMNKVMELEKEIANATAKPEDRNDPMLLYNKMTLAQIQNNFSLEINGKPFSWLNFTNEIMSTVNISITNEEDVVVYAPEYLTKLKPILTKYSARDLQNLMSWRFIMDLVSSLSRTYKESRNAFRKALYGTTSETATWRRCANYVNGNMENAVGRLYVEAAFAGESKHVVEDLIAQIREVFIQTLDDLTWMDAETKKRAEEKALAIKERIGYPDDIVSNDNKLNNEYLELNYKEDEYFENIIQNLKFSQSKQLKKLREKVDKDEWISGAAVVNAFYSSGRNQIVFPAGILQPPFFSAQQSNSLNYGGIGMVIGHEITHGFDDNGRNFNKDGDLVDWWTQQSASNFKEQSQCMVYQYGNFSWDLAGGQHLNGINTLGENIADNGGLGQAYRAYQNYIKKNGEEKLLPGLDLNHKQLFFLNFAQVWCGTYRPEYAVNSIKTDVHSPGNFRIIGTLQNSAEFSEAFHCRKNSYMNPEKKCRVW

[3] = target: Angiotensin-converting enzyme (Homo sapiens, UniProt P12821); assay: Tested in vitro for inhibition of Angiotensin converting enzyme (ACE); details: read-out: I50
Chain of Angiotensin-converting enzyme (P12821 whole entry): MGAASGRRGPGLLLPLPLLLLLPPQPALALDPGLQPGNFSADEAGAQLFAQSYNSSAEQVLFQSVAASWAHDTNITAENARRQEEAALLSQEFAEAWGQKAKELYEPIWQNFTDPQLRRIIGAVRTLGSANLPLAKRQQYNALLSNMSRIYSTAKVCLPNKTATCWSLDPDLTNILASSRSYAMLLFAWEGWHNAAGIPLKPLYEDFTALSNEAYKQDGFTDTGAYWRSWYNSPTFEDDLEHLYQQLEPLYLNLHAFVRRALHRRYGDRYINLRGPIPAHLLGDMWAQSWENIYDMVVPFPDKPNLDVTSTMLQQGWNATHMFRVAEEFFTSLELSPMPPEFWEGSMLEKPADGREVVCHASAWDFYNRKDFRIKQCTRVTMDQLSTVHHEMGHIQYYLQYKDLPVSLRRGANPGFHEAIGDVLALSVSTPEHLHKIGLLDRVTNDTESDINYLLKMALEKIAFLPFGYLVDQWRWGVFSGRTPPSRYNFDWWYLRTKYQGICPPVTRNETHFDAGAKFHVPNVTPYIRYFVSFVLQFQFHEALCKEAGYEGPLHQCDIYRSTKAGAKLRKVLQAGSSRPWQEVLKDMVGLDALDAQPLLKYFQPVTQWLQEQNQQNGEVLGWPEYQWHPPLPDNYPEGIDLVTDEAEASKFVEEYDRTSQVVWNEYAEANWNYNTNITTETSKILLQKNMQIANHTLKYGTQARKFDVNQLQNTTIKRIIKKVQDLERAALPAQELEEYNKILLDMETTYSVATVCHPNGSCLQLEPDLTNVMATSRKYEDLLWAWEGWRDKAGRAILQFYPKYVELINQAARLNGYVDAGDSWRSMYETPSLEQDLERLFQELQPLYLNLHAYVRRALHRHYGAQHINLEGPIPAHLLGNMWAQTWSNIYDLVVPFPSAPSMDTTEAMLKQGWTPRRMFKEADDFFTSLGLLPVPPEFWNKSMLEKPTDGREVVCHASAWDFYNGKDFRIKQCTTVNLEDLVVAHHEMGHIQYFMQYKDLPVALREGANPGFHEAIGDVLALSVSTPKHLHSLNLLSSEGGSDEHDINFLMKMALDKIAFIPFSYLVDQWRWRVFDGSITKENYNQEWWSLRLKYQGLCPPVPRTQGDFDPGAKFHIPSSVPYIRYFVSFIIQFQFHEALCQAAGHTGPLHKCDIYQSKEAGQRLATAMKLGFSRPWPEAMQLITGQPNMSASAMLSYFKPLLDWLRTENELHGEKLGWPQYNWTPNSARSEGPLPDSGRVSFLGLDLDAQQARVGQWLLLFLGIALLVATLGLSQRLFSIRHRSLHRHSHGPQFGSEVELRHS

| SMILES | ED50 [1] | pIC50 [2] | pIC50 [3] |
| --- | --- | --- | --- |
| C[C@H]1Oc2ccccc2N(CC(=O)O)C(=O)[C@H]1NC(=O)[C@@H](S)Cc1ccccc1 | 0.015 µmol/kg | 6.93 | 7.89 |
| O=C(O)CN1C(=O)[C@@H](NC(=O)[C@@H](S)Cc2ccccc2)COc2ccccc21 | 0.26 µmol/kg | 8.51 | 7.55 |
| O=C(O)CCN1C(=O)[C@@H](NC(=O)[C@@H](S)Cc2ccccc2)CSc2ccccc21 | 0.33 µmol/kg | 8.66 | 7.85 |
| O=C(O)CCN1C(=O)[C@@H](NC(=O)[C@@H](CS)Cc2ccccc2)CCc2ccccc21 | 13.3 µmol/kg | 8.77 | 7.44 |
| C[C@H]1Oc2ccccc2N(CCC(=O)O)C(=O)[C@H]1NC(=O)[C@@H](S)Cc1ccccc1 | – | 7.08 | 7.74 |
| C[C@@H]1Oc2ccccc2N(CC(=O)O)C(=O)[C@H]1NC(=O)[C@@H](S)Cc1ccccc1 | 2.1 µmol/kg | 8.28 | 7.44 |
| O=C(O)CN1C(=O)[C@@H](NC(=O)[C@@H](CS)Cc2ccccc2)CCc2ccccc21 | 0.52 µmol/kg | 8.68 | 8.32 |
| O=C(O)CN1C(=O)[C@@H](NC(=O)[C@@H](CS)Cc2ccccc2)COc2ccccc21 | 5.8 µmol/kg | 9.22 | 8.36 |
| O=C(O)CN1C(=O)[C@@H](NC(=O)[C@@H](S)Cc2ccccc2)CCc2ccccc21 | 0.02 µmol/kg | 8.21 | – |
| C[C@H](NC(=O)[C@@H](S)Cc1ccccc1)C(=O)N1CCC[C@H]1C(=O)O | 0.06 µmol/kg | 6.40 | 7.52 |
| O=C(O)CCN1C(=O)[C@@H](NC(=O)[C@@H](S)Cc2ccccc2)CCc2ccccc21 | 1.34 µmol/kg | 8.62 | 7.44 |
| O=C(O)CN1C(=O)[C@@H](NC(=O)[C@@H](S)Cc2ccccc2)CSc2ccccc21 | 0.14 µmol/kg | 7.19 | 7.89 |
| O=C(O)CCN1C(=O)[C@@H](NC(=O)[C@@H](S)Cc2ccccc2)COc2ccccc21 | 1.2 µmol/kg | 8.92 | 7.51 |
| C[C@H](NC(=O)[C@@H](CS)Cc1ccccc1)C(=O)N1CCC[C@H]1C(=O)O | 0.5 µmol/kg | 8.18 | 8.40 |
| O=C(O)CN1C(=O)[C@@H](NC(=O)[C@@H](CS)Cc2ccccc2)CSc2ccccc21 | 4 µmol/kg | 9.00 | 7.77 |
